Experimental data from US8822182B2, “Chimeric antigen-specific T cell-activating polypeptides” (Mayo Foundation for Medical Education and Research, priority 2001, dated 2014).
Where two headings read alike, the source gives them in different places.

Columns and labels:
[1] = test system: TAP-deficient RMA-S target cells; assay type: cell-based, mouse; details: peptide epitope-activated CTL; for sensitization of targets for lysis by LCMV-specific CTL: FIG. 10C (right panel)
[2] = test system: TAP deficient RMA-S targets; assay type: cell-based, mouse; details: ConA-activated CTL, 10 μM overnight; for sensitization of targets for killing by OVA257-specific CTL: FIG. 9 left panel; for sensitization of targets for killing by 2C-specific CTL: FIG. 9 middle panel
[3] = test system: TAP-deficient T2 target cells; assay type: cell-based, human
[4] = test system: TAP-expressing 221.A2 target cells; test: 51Cr release cytotoxicity assay, human CEA-specific CTL line, 221.A2 targets; assay type: cell-based; details: TAP-competent targets, incubated overnight with peptide, FIG. 1A
[5] = test system: TAP-deficient T2 target cells; test: 51Cr release cytotoxicity assay, human CEA-specific CTL line, T2 targets; assay type: cell-based; details: for effect of brefeldin-A (BFA) on sensitization of T2 cells: BFA 1 μg/ml, CEA-specific CTL, E:T 20:1, FIG. 4; for ability to sensitize target cells for CTL lysis: TAP-deficient targets, incubated overnight with peptide, FIG. 1B; for sensitizing activity after pre-incubation with trypsin: trypsin at 37° C., E:T 20:1, FIG. 2B; for capacity to sensitize targets for CTL lysis: 10 μM overnight, E:T 20:1, FIG. 2C
[6] = test system: TAP-competent cells expressing H-2K^b (L-K^b); test: Immunofluorescence and confocal microscopy of H-2K^b/OVA257 complexes, TAP-competent cells; assay type: cell-based, mouse
Procedure: (§1) T2/K^b or L-K^b cells were cultured overnight on poly-lysine treated glass coverslips. The culture medium was discarded, and the cells were gently washed with PBS. The cells were pre-incubated with serum-free AIM-V medium at 37° C. for 30 minutes and then incubated with peptide/TA solutions at the indicated concentrations for 12 hour at 37° C. After peptide loading, the cells were washed and fixed with 2% formaldehyde for 20 minutes at room temperature. For indirect immunofluorescence, fixed cell monolayers were permeabilized with 0.2% Triton X100 in PBS and incubated with PBS containing 5% goat serum to block non-specific protein binding sites. The cells were double-labeled with mouse monoclonal antibody 25D1.16 specific to OVA257/H-2K^b complex and rabbit polyclonal antibody TGN38 (TGN marker) or rabbit anti-calreticulin (ER marker), followed by 1 hour staining with FITC anti-mIgG and TR anti-rIgG as secondary antibodies. After washing, the coverslips were mounted for observation on glass slides using the Prolong Antifade Kit. The stained cells were examined and photographed with a Leica TCS-SL confocal laser-scanning microscope (Bensheim, Germany).
Utilizing the monoclonal antibody 25D1.16 that specifically reacts with H-2K^b/OVA257 complexes and confocal microscopy, the formation and presence of this CTL epitope in permeabilized TAP-competent and TAP-deficient cells expressing H-2K^b was evaluated. […] These cells were also stained with an antibody specific for calreticulin which is localized within the ER.

[7] = test system: Murine dendritic cells (DC); test: Persistence in dendritic cells: IFN-γ ELISA of OT-1 CTL cultured with pulsed DC; assay type: cell-based, mouse; details: DC pulsed 10 μM 2 hours, washed, further 48 hours, CTL:DC 10:1 for 24 hours, FIG. 14
Procedure: Murine dendritic cells (DC) were prepared by culturing C57BL6 mouse (H-2^b) bone marrow […] in the presence of granulocyte macrophage colony stimulating factor (GM-CSF) and interleukin-4 (IL-4) by a method essentially the same as that described by Son et al. [(2002) J. Immunol. Meth. 262:145-157] except that non-adherent cells are removed from the cultures and discarded on day 2 of culture and no density gradient centrifugation step was used. Cells not adhering to the plastic tissue culture vessel at day 6 of culture were harvested and used as DC.
DC were pulsed with either the TA HIVtat-OVA257 (see Table 2) or the peptide epitope OVA257, each at a concentration of 10 μM, for 2 hours at 37° C. The cells were then washed free of the TA or peptide epitope and incubated for a further 48 hours. They were then cultured with cells of the OT-1 CTL clone (specific for H-2K^b/OVA257) at a CTL to DC ratio of 10:1 for 24 hours. Supernatants were then removed from the cultures and the relative amounts of IFN-γ in various dilutions of each supernatant were measured by ELISA (FIG. 14). […] These findings indicate that a peptide epitope persists in DC for a longer period of time when taken up by DC in the form of a TA than when taken up by DC in the form of the peptide epitope per se.

[8] = test system: TAP-deficient T2/K^b cells; test: Flow cytometry of surface H-2K^b/OVA257 complexes (25D1.16) with protease inhibitors, T2/K^b cells; assay type: cell-based, human; details: antigen 10 μM overnight; for effect of furin inhibitor decRVKR-CMK on expression of surface H-2K^b/OVA257 complexes (decrease): decRVKR-CMK 60 μM, FIGS. 8D-8F; for effect of lactacystin on level of surface H-2K^b/OVA257 complexes (increase): lactacystin 10 μM, FIGS. 6C and 6D; for effect of pepstatin-A on amounts of surface peptide/MHC class I complexes (increase): pepstatin 100 μM, FIGS. 7C and 7D
Procedure: (§2) The effects of protease inhibitors on antigen processing and presentation were evaluated by analysis of 25D1.16 staining on different antigen-pulsed EL-4 or T2/K^b cells using flow cytometric analysis. In brief, EL-4 or T2/K^b cells were washed twice with serum-free AIM-V medium (Life Technologies, Rockville, Md.), pre-treated with protease inhibitors (10 μM lactacycstin, 100 μM pepstatin or 60 μM decRVKR-CMK) for 30 minutes and then pulsed with equimolar concentrations of different (as indicated) peptides at 37° C. overnight with the continuous presence of the corresponding protease inhibitors. The serum-free AIM-V medium was used in order to exclude the potential involvement of serum proteases during the peptide-pulsing process. After washing the cells twice with FACS buffer (PBS (phosphate buffered saline) supplemented with 2% FBS and 0.2% sodium azide), peptide-loaded APC were stained with 25D1.16 antibody followed by FITC anti-mIgG for flow analysis. Untreated EL-4 and T2/K^b cells were pulsed with peptides and stained as controls.
The data described above indicate that TA can be processed in various cellular compartments to produce small peptide epitopes that subsequently associate with MHC class I molecules and the resulting peptide-MHC class I complexes are then transported to the cell surface. Antigen processing could take place: (1) in the cytoplasm, via proteasomal degradation followed by TAP transport; (2) within the ER, where peptide trimming via an aminopeptidase could occur; (3) in the trans-Golgi, where processing of antigens through proteases such as furin can occur; and/or (4) in early endocytic compartments, where peptides that could either bind to recycling MHC class I molecules or leak into other compartments of the MHC class I pathway can be generated. Utilizing antibody 25D1.16, we studied the effects of various inhibitors of antigen processing in the formation of H-2K^b/OVA257 surface complexes by peptides OVA257-HIVtat and HIVtat-OVA257.

TAP-competent EL-4 cells = test: Flow cytometry of surface H-2K^b/OVA257 complexes (25D1.16) with protease inhibitors, EL-4 cells; assay type: cell-based, mouse; details: antigen 10 μM overnight; for effect of furin inhibitor decRVKR-CMK on expression of surface H-2K^b/OVA257 complexes (decrease): decRVKR-CMK 60 μM, FIGS. 8A-8C; for effect of lactacystin on amount of surface H-2K^b/OVA257 complexes: lactacystin 10 μM, FIGS. 6A and 6B; for effect of pepstatin-A on amounts of surface peptide/MHC class I complexes (increase): pepstatin 100 μM, FIGS. 7A and 7B
Procedure: as §2

C57BL/6 mice = assay type: in vivo, mouse; details: 50 μg in IFA; spleen and lymph node cells cultured with IL-2 for 7 days, FIG. 12
[9] = test system: TAP-expressing 221.A2 target cells; assay type: cell-based, human
[10] = test system: TAP-deficient cells (T2/K^b); test: Immunofluorescence and confocal microscopy of H-2K^b/OVA257 complexes, T2/K^b cells; assay type: cell-based, human
Procedure: as §1
An antibody specific for trans-Golgi network (TGN38) was used to test whether H-2K^b/OVA257 complexes could also be detected in the trans-Golgi network of cells incubated with TA peptides. […] In these cells, antibody TGN38 stained brightly a structure corresponding to the trans-Golgi. […] These observations reinforce the findings that TA peptides need to penetrate cells in order to create MHC class I/peptide complexes. In addition, these complexes are observed in both the ER and trans-Golgi, even in TAP-deficient cells.

## IKAVYNFATCG [LCMV, reference compound]
[1]
  sensitization of targets for lysis by LCMV-specific CTL: relatively high amount of the peptide epitope required to sensitize
[2]; FIG. 9 right panel
  sensitization of targets for lysis by LCMV-specific CTL: only the short minimal epitope was effective

## IKAVYNFATCGVRVVSIYRYYGLVRVVSIINFEKLAAARKKRRQRRR [TA3-C]
[1]; E:T 10:1, FIG. 10
  effectiveness in sensitizing RMA-S targets relative to TA3-A (less effective): at least 100 fold
  sensitization of targets for lysis by CTL specific for all three peptide epitopes (OVA257, 2C, LCMV): also sensitized the RMA-S targets for lysis
[2]
  sensitization of targets for killing by OVA257-specific CTL: much less effective
  sensitization of targets for killing by 2C-specific CTL: much less effective

## IMDQVPSFV [gp100209, reference compound]
[3]
  effect of brefeldin-A (BFA) on sensitization of T2 cells: did not block

## IMIGVLVGV (epitope) [CEA691, reference compound]
[4]
  ability to sensitize target cells for CTL lysis: similar, if not identical, activities
[5]
  effect of brefeldin-A (BFA) on sensitization of T2 cells: did not block
  ability to sensitize target cells for CTL lysis: similar, if not identical, activities
[5]; antigen 1 μM, 30 minutes, E:T 20:1, FIG. 2A
  effect of competitor peptide HBc18-27 on sensitization of target cells for CTL lysis: efficient at inhibiting the sensitization of target cells for CTL lysis by peptide CEA691
[5]; antigen 1 μM
  sensitizing activity after pre-incubation with trypsin: did not modify this peptide's sensitizing activity

## IMIGVLVGVAAARKKRRQRRR [CEA691-HIVtat]
[4]
  ability to sensitize target cells for CTL lysis: similar, if not identical, activities
[5]
  ability to sensitize target cells for CTL lysis: similar, if not identical, activities
[5]; antigen 1 μM
  sensitizing activity after pre-incubation with trypsin: lost most of its activity

## IMIGVLVGVKKK [CEA691-KKK]
[5]
  capacity to sensitize targets for CTL lysis: none of peptides CEA691-KKK, CEA691-RRR or CEA691-RKK were able to sensitize

## IMIGVLVGVRKK [CEA691-RKK]
[5]
  capacity to sensitize targets for CTL lysis: none of peptides CEA691-KKK, CEA691-RRR or CEA691-RKK were able to sensitize

## IMIGVLVGVRRR [CEA691-RRR]
[5]
  capacity to sensitize targets for CTL lysis: none of peptides CEA691-KKK, CEA691-RRR or CEA691-RKK were able to sensitize

## RKKRRQRRRAAAIMIGVLVGV [HIVtat-CEA691]
[5]
  effect of brefeldin-A (BFA) on sensitization of T2 cells: effective in blocking

## RKKRRQRRRAAASIINFEKL [HIVtat-OVA257]
[6]; 25D1.16 staining
  presence of H-2K^b/OVA257 complexes in permeabilized cells: abundant
[6]; 25D1.16 superimposed with calreticulin staining
  H-2K^b/OVA257 complexes within the ER: abundant H-2K^b/OVA257 complexes were present within the ER
[7]
  IFN-γ produced by OT-1 CTL cultured with pulsed DC: a high level of IFN-γ was produced
[8]
  effect of furin inhibitor decRVKR-CMK on expression of surface H-2K^b/OVA257 complexes (decrease): no effect was observed
  effect of lactacystin on level of surface H-2K^b/OVA257 complexes (increase): did not have an appreciable effect
  effect of pepstatin-A on amounts of surface peptide/MHC class I complexes (increase): did not have an appreciable effect
TAP-competent EL-4 cells
  effect of furin inhibitor decRVKR-CMK on expression of surface H-2K^b/OVA257 complexes (decrease): no effect was observed
  effect of lactacystin on amount of surface H-2K^b/OVA257 complexes: did not have an effect
  effect of pepstatin-A on amounts of surface peptide/MHC class I complexes (increase): did not have an appreciable effect

## RKKRRQRRRAAASVYDEFFVWLKVKRLPYLGWLVFKVKRSGPSNTPPEI [TA5]
C57BL/6 mice
  peptide epitope-specific cytotoxic activity of effector cells from immunized mice (E1A, P1A, TRP-2 pulsed versus unpulsed RMA-S targets): significant peptide epitope-specific cytotoxic activity was detected

## RKKRRQRRRAAASVYDEFFVWLVRVVLPYLGWLVFVRVVSGPSNTPPEI [TAG]
C57BL/6 mice
  peptide epitope-specific cytotoxic activity of effector cells from immunized mice (E1A, P1A, TRP-2 pulsed versus unpulsed RMA-S targets): no significant cytotoxic activity

## RKKRRQRRRIKAVYNFATCGRVKRSIINFEKLRVKRSIYRYYGL [TA3-D]
[1]
  sensitization of targets for lysis by LCMV-specific CTL: less effective
[1]; FIG. 10 left panel
  sensitization of targets for lysis by OVA257-specific CTL: as effective as the others
[1]; FIG. 10 middle panel
  sensitization of targets for lysis by 2C-specific CTL: as effective as the others

## RQIKIWFPNRRMKWKKAEIDLIMDQVPFSVLRTED [AntpHD-gp100209]
[9]
  sensitization of targets for lysis by gp100209-specific CTL clone: efficiently sensitized
[3]
  effect of brefeldin-A (BFA) on sensitization of T2 cells: effective in blocking
  sensitization of targets for lysis by gp100209-specific CTL clone: efficiently sensitized

## SIINFEKLAAARKKRRQRRR [OVA257-HIVtat]
[8]
  effect of furin inhibitor decRVKR-CMK on expression of surface H-2K^b/OVA257 complexes (decrease): about 10 fold
  effect of lactacystin on level of surface H-2K^b/OVA257 complexes (increase): about 3 fold
  effect of pepstatin-A on amounts of surface peptide/MHC class I complexes (increase): 3-5 fold
[10]; 25D1.16 staining
  amount of intracellular H-2K^b/OVA257 complexes: High amounts of intracellular H-2K^b/OVA257 complexes
[10]; 25D1.16 superimposed with TGN38 staining
  localization of H-2K^b/OVA257 complexes to the trans-Golgi: majority of the H-2K^b/OVA257 complexes localized within the trans-Golgi
TAP-competent EL-4 cells
  effect of furin inhibitor decRVKR-CMK on expression of surface H-2K^b/OVA257 complexes (decrease): about 10 fold
  effect of lactacystin on amount of surface H-2K^b/OVA257 complexes: did not have an effect
  effect of pepstatin-A on amounts of surface peptide/MHC class I complexes (increase): 3-5 fold

## SIINFEKLRVKRIKAVYNFATCGRVKRSIYRYYGLAAARKKRRQRRR [TA3-B]
[2]
  sensitization of targets for killing by OVA257-specific CTL: could effectively kill targets sensitized
  sensitization of targets for killing by 2C-specific CTL: could effectively kill targets sensitized
